Test results: PubChem BioAssay AID248 (DTP/NCI, 2004)
Values joined by “and” are separate entries in the source; they are usually repeats but may differ in a detail not shown here. Equal values may be shown once. Inconclusive results and toxic doses are left out. No stated cut-off is given here; in the data, active means T/C of 150% or more; inactive means T/C below 125%.

Tested on: L1210 leukemia ip in BDF1 mice, survival T/C
Assay: NCI In Vivo Anticancer Drug Screen. Data for tumor model L1210 Leukemia (intraperitoneal) in B6D2F1 (BDF1) mice
Conditions: endpoint: mean survival time, higher = longer survival
Summary of the method: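 Transplantable tumor model; survival measured in treated vs vehicle control mice. Value = treated/control.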

[1] = dose: 100.0 mg/kg/injection, schedule: Q04DX003 (ip), vehicle: Klucel (hydroxypropylcellulose) (HPC)
[2] = dose: 200.0 mg/kg/injection, schedule: Q04DX003 (ip), vehicle: Klucel (hydroxypropylcellulose) (HPC)
[3] = dose: 400.0 mg/kg/injection, schedule: Q04DX003 (ip), vehicle: Klucel (hydroxypropylcellulose) (HPC)
[4] = dose: 100.0 mg/kg/injection, schedule: Q01DX009 (ip), vehicle: saline with Tween-80
[5] = dose: 100.0 mg/kg/injection, schedule: Q04DX003 (ip), vehicle: saline with Tween-80
[6] = dose: 200.0 mg/kg/injection, schedule: Q01DX009 (ip), vehicle: saline with Tween-80
[7] = dose: 200.0 mg/kg/injection, schedule: Q04DX003 (ip), vehicle: saline with Tween-80
[8] = dose: 400.0 mg/kg/injection, schedule: Q01DX009 (ip), vehicle: saline with Tween-80
[9] = dose: 400.0 mg/kg/injection, schedule: Q04DX003 (ip), vehicle: saline with Tween-80
[10] = dose: 100.0 mg/kg/injection, schedule: Q01DX009 (ip), vehicle: Klucel (hydroxypropylcellulose) (HPC)
[11] = dose: 200.0 mg/kg/injection, schedule: Q01DX009 (ip), vehicle: Klucel (hydroxypropylcellulose) (HPC)
[12] = dose: 400.0 mg/kg/injection, schedule: Q01DX009 (ip), vehicle: Klucel (hydroxypropylcellulose) (HPC)
[13] = dose: 50.0 mg/kg/injection, schedule: Q01DX009 (ip), vehicle: saline with Tween-80
[14] = dose: 100.0 mg/kg/injection, schedule: Q04DX003 (ip), vehicle: saline
[15] = dose: 200.0 mg/kg/injection, schedule: Q04DX003 (ip), vehicle: saline
[16] = dose: 400.0 mg/kg/injection, schedule: Q04DX003 (ip), vehicle: saline
[17] = dose: 50.0 mg/kg/injection, schedule: Q01DX009 (ip), vehicle: Klucel (hydroxypropylcellulose) (HPC)

Measured: T/C

c1ccc2c(c1)NC(C1Nc3ccccc3S1)S2 (stereo not drawn)
inactive: dose: 100.0 mg/kg/injection, schedule: Q01DX001 (ip), vehicle: acetone 90 % of control | [1] 93 % of control | dose: 200.0 mg/kg/injection, schedule: Q01DX001 (ip), vehicle: acetone 88 % of control | [2] 93 % of control | dose: 400.0 mg/kg/injection, schedule: Q01DX001 (ip), vehicle: acetone 88 % of control | [3] 90 % of control

COC1(c2ccc(C(F)(F)F)cc2)OC1(C)C (stereo not drawn)
inactive: [4] 98 % of control | [5] 96 % of control | [6] 100 % of control | [7] 102 % of control | [8] 104 % of control | [9] 102 % of control

CC(=O)c1cccc(NC(=O)Nc2cccc(C)n2)c1
inactive: [10] 106 % of control | [11] 102 % of control | [12] 101 % of control

C=C(OCC)P(=O)(OCCCC)OCCCC
inactive: dose: 100.0 mg/kg/injection, schedule: Q04DX002 (ip), vehicle: saline with Tween-80 100 % of control | dose: 200.0 mg/kg/injection, schedule: Q04DX002 (ip), vehicle: saline with Tween-80 90 % of control | dose: 400.0 mg/kg/injection, schedule: Q04DX002 (ip), vehicle: saline with Tween-80 93 % of control

COc1ccc(-n2c(C)csc2=S)cc1
inactive: [5] 94 % of control | [7] 97 % of control

Nc1nc2ncc(CNc3nc(C(=O)NC(CCC(=O)O)C(=O)O)cs3)nc2c(=O)[nH]1 (stereo not drawn)
inactive: dose: 25.0 mg/kg/injection, schedule: Q01DX009 (ip), vehicle: alkali diluted with saline 97 % of control | dose: 50.0 mg/kg/injection, schedule: Q01DX009 (ip), vehicle: alkali diluted with saline 93 % of control | dose: 75.0 mg/kg/injection, schedule: Q01DX001 (ip), vehicle: other 101 % of control | dose: 75.0 mg/kg/injection, schedule: Q01DX009 (ip), vehicle: alkali diluted with saline 103 % of control | dose: 100.0 mg/kg/injection, schedule: Q01DX009 (ip), vehicle: alkali diluted with saline 92 % of control | dose: 150.0 mg/kg/injection, schedule: Q01DX001 (ip), vehicle: other 103 % of control

Clc1cccc(Nc2nc(Cl)nc(C(Cl)(Cl)Cl)c2Cl)c1
inactive: [4] 88 % of control | [6] 94 % of control | [8] 88 % of control

CC(C)CCC1=C(O)c2ccccc2C(=O)C1=O
inactive: dose: 30.0 mg/kg/injection, schedule: Q01DX015 (ip), vehicle: water 100 % of control | dose: 35.0 mg/kg/injection, schedule: Q01DX015 (ip), vehicle: water 106 % of control | dose: 45.0 mg/kg/injection, schedule: Q01DX015 (ip), vehicle: water 95 % of control | dose: 70.0 mg/kg/injection, schedule: Q01DX015 (ip), vehicle: water 103 % of control

C(#CP(c1ccccc1)c1ccccc1)c1ccccc1
inactive: [1] 93 % of control | [2] 97 % of control | [3] 95 % of control

COc1cc(/C=N/O)ccc1O
inactive: [13] 97 % of control and 105 % of control | [4] 97 % of control and 102 % of control | [5] 96 % of control | [6] 107 % of control and 112 % of control | [7] 87 % of control | [9] 91 % of control

CCOC(=O)N/N=C/c1cccs1
inactive: dose: 100.0 mg/kg/injection, schedule: Q01DX001 (ip), vehicle: saline 98 % of control | dose: 200.0 mg/kg/injection, schedule: Q01DX001 (ip), vehicle: saline 96 % of control | dose: 400.0 mg/kg/injection, schedule: Q01DX001 (ip), vehicle: saline 98 % of control

O=[N+]([O-])c1ccc(/C=N/N2CCOCC2)s1
inactive: [14] 102 % of control | [15] 97 % of control | [16] 102 % of control

CN(C)c1cc(Br)c(C=O)cc1[N+](=O)[O-]
inactive: [10] 94 % of control | [1] 102 % of control | [11] 103 % of control | [2] 93 % of control | [12] 92 % of control | [3] 98 % of control

COc1ccc(OCC2CO2)cc1 (stereo not drawn)
inactive: [10] 103 % of control | [1] 100 % of control | [11] 103 % of control | [2] 96 % of control | [12] 102 % of control | [3] 102 % of control

C[N+](C)(C)C1(Cc2ccc(F)cc2)c2ccccc2-c2ccccc21
inactive: dose: 6.25 mg/kg/injection, schedule: Q01DX009 (ip), vehicle: saline with Tween-80 88 % of control | dose: 6.25 mg/kg/injection, schedule: Q04DX002 (ip), vehicle: saline with Tween-80 98 % of control | dose: 6.25 mg/kg/injection, schedule: Q04DX003 (ip), vehicle: saline with Tween-80 90 % of control | dose: 12.5 mg/kg/injection, schedule: Q04DX002 (ip), vehicle: saline with Tween-80 115 % of control | dose: 12.5 mg/kg/injection, schedule: Q04DX003 (ip), vehicle: saline with Tween-80 90 % of control | dose: 25.0 mg/kg/injection, schedule: Q01DX009 (ip), vehicle: saline with Tween-80 88 % of control | dose: 25.0 mg/kg/injection, schedule: Q04DX002 (ip), vehicle: saline with Tween-80 98 % of control | dose: 25.0 mg/kg/injection, schedule: Q04DX003 (ip), vehicle: saline with Tween-80 90 % of control

Cc1ccc(C/C(Cc2ccccc2)=N/O)cc1
inactive: dose: 25.0 mg/kg/injection, schedule: Q04DX002 (ip), vehicle: Klucel (hydroxypropylcellulose) (HPC) 101 % of control | dose: 50.0 mg/kg/injection, schedule: Q04DX002 (ip), vehicle: Klucel (hydroxypropylcellulose) (HPC) 111 % of control | dose: 100.0 mg/kg/injection, schedule: Q04DX002 (ip), vehicle: Klucel (hydroxypropylcellulose) (HPC) 93 % of control | dose: 100.0 mg/kg/injection, schedule: Q04DX002 (ip), vehicle: saline 111 % of control | dose: 200.0 mg/kg/injection, schedule: Q04DX002 (ip), vehicle: Klucel (hydroxypropylcellulose) (HPC) 108 % of control | dose: 200.0 mg/kg/injection, schedule: Q04DX002 (ip), vehicle: saline 97 % of control | dose: 400.0 mg/kg/injection, schedule: Q04DX002 (ip), vehicle: saline 87 % of control

CSc1ccc(NC(=O)Oc2cc(C)c(Cl)cc2C(C)C)cc1
inactive: [10] 94 % of control | [11] 96 % of control | [12] 89 % of control

Cc1n(-c2ccccc2)c2c([n+]1Cc1ccc([N+](=O)[O-])cc1)C(=O)c1ccccc1C2=O
inactive: dose: 5.0 mg/kg/injection, schedule: Q01DX001 (ip), vehicle: other 106 % of control | dose: 10.0 mg/kg/injection, schedule: Q01DX001 (ip), vehicle: other 101 % of control | dose: 20.0 mg/kg/injection, schedule: Q01DX001 (ip), vehicle: other 93 % of control | dose: 40.0 mg/kg/injection, schedule: Q01DX001 (ip), vehicle: other 95 % of control

CCCCN=C(NCCCC)OC1CCCCC1
inactive: dose: 11.1 mg/kg/injection, schedule: Q01DX Z (ip), vehicle: saline 98 % of control | dose: 16.6 mg/kg/injection, schedule: Q01DX Z (ip), vehicle: saline 100 % of control | dose: 25.0 mg/kg/injection, schedule: Q01DX Z (ip), vehicle: saline 102 % of control

CN(C)C(=O)O/N=C(\c1ccccc1)C(F)(F)F
inactive: dose: 0.5 mg/kg/injection, schedule: Q01DX001 (ip), vehicle: saline 103 % of control | dose: 1.0 mg/kg/injection, schedule: Q01DX001 (ip), vehicle: saline 102 % of control | dose: 2.0 mg/kg/injection, schedule: Q01DX001 (ip), vehicle: saline 97 % of control

CC(C)N(C(=O)COc1ccc(Cl)cc1)c1ccccc1
inactive: [17] 103 % of control | [10] 104 % of control | [1] 108 % of control | [11] 92 % of control | [2] 93 % of control

COc1ccc(COC(=O)CN2C(=O)c3ccccc3C2=O)cc1
inactive: [10] 98 % of control | [1] 95 % of control | [11] 107 % of control | [2] 95 % of control | [12] 98 % of control | [3] 93 % of control

Fc1nc(F)nc(F)n1
inactive: dose: 12.0 mg/kg/injection, schedule: Q01DX009 (ip), vehicle: Klucel (hydroxypropylcellulose) (HPC) 89 % of control | dose: 25.0 mg/kg/injection, schedule: Q01DX009 (ip), vehicle: Klucel (hydroxypropylcellulose) (HPC) 94 % of control | [17] 112 % of control | [14] 90 % of control | [15] 100 % of control | [16] 102 % of control

COc1cc2c(cc1O)C(=O)CCC(C(=O)O)=C2
inactive: [13] 93 % of control | [4] 107 % of control | [6] 96 % of control
